Experimental findings from patent US6153589A, “2,3-epoxy alcohols, acids and derivatives as anti retroviral chemotherapeutic agents” (The United States of America as represented by the …, priority 1992, dated 2000) are described below.

Like-named read-outs stand apart in the source and are kept apart here.

The assay relates to HIV1 IIIb. Description: microbe, parasite or virus in culture. Format: cell-based. As to conditions: Human immunodeficiency virus 1, IIIB; for viability at 10 µg/mL: 10 ug/ml; for viability at 0.1 µg/mL: 0.1 ug/ml; for viability at 1 µg/mL: 1 ug/ml; for viability at 100 µg/mL: 100 ug/ml; for viability at 4.07 µg/mL: 4.07 ug/ml; for viability at 34.6 µg/mL: 34.6 ug/ml; for viability at 29 µg/mL: 29 ug/ml; for viability at 24.8 µg/mL: 24.8 ug/ml; for viability at 4.7 µg/mL: 4.7 ug/ml, virus kill 22.0%. From the text:
In-vitro Screening Anti--HIV XTT Assay
This assay, which is available to the public by the National Cancer Institute, utilizes colorimetry based on the production of a colored formazin from a tetrazolium salt by viable cells, to develop a safe, rapid and quantitative measure of HIV cytopathology. The assay is a modification of the previously described screening method for the detection of anti-tumor drug cytotoxicity (D. A. Scudiero, et al, Cancer Res, 48, 4827-4833 (1988)). It involves the plating of susceptible human "host" cells with and without virus in microculture plates, adding various concentrations of the respective test compounds, incubating the plates for seven days, during which time infected, non-drug treated control cells are largely or totally destroyed by the virus. The number of remaining viable cells are determined utilizing a calorimetric endpoint. A beneficial antiviral effect is indicated by a response % grater than the virus kill %, with 100% being optimal.
Anti-viral effect: Response (Viable Cells, determined by colorometric
absorbance of formazan dye produced) as % of uninfected controls
Virus Source: HIV1 IIIb; C, Virus producing H9 cells; V, cell free virus
Virus Kill: Infected untreated cells as % of uninfected cell controls
*: Culture redosed with compound after 3 days

The mark [1] stands for this setting: H9, 168 h, read-out: Antiviral Effect (viable cells as % of uninfected controls), run 1, source C (virus producing H9 cells), virus kill 21.0%.

Take `CCCCCCCCCCC[C@@H]1O[C@@H]1C(=O)O` (relative stereo) [Example 19, (2S*-cis)-3-Undecyloxiranecarboxylic Acid]: the viability at 10 µg/mL turned out to be 63.9% (168 h, read-out: Antiviral Effect (viable cells as % of uninfected controls), run 4, source V (cell free virus), virus kill 57.0%); 38.8% (168 h, read-out: Antiviral Effect (viable cells as % of uninfected controls), run 5, source V (cell free virus), virus kill 26.0%); 55.7% (H9, 168 h, read-out: Antiviral Effect (viable cells as % of uninfected controls), run 2, source C (virus producing H9 cells), virus kill 15.0%). In addition, the viability at 0.1 µg/mL (168 h, read-out: Antiviral Effect (viable cells as % of uninfected controls), run 6, source V (cell free virus), virus kill 19.0%) was determined as 27.6%. Also, the viability at 1 µg/mL amounted to 12.5% (168 h, read-out: Antiviral Effect (viable cells as % of uninfected controls), run 7*, source V (cell free virus), virus kill 25.0%, culture redosed with compound after 3 days); 22.6% under setting [1]; 11.6% (H9, 168 h, read-out: Antiviral Effect (viable cells as % of uninfected controls), run 3, source C (virus producing H9 cells), virus kill 13.0%).

Turning to `CCCCCCCCCCC[C@H]1O[C@@H]1C(=O)O` (relative stereo) [Example 20, (2S*-trans)-3-Undecyloxiranecarboxylic Acid], the viability at 100 µg/mL (168 h, read-out: Antiviral Effect (viable cells as % of uninfected controls), run 6, source V (cell free virus), virus kill 55.0%) is 75.7%; the viability at 100 µg/mL (168 h, read-out: Antiviral Effect (viable cells as % of uninfected controls), run 7, source V (cell free virus), virus kill 55.0%) came out at 84.3%; the viability at 100 µg/mL (168 h, read-out: Antiviral Effect (viable cells as % of uninfected controls), run 8, source V (cell free virus), virus kill 24.0%) stood at 40.2%; the viability at 100 µg/mL (168 h, read-out: Antiviral Effect (viable cells as % of uninfected controls), run 9, source V (cell free virus), virus kill 24.0%) turned out to be 72.5%; the viability at 100 µg/mL (H9, 168 h, read-out: Antiviral Effect (viable cells as % of uninfected controls), run 3, source C (virus producing H9 cells), virus kill 14.0%) amounted to 60.9%; the viability at 100 µg/mL (H9, 168 h, read-out: Antiviral Effect (viable cells as % of uninfected controls), run 4, source C (virus producing H9 cells), virus kill 10.0%) stood at 10%. The viability at 100 µg/mL (H9, 168 h, read-out: Antiviral Effect (viable cells as % of uninfected controls), run 5, source C (virus producing H9 cells), virus kill 10.0%) turned out to be 10.2%. Besides, the viability at 4.07 µg/mL is, setting by setting: (168 h, read-out: Antiviral Effect (viable cells as % of uninfected controls), run 10, source V (cell free virus), virus kill 25.0%) 45.5%; (168 h, read-out: Antiviral Effect (viable cells as % of uninfected controls), run 11*, source V (cell free virus), virus kill 23.0%, culture redosed with compound after 3 days) 87.4%. For the same molecule, the viability at 10 µg/mL (H9, 168 h, read-out: Antiviral Effect (viable cells as % of uninfected controls), run 1, source C (virus producing H9 cells), virus kill 18.0%) was 22.6% and the viability at 10 µg/mL (H9, 168 h, read-out: Antiviral Effect (viable cells as % of uninfected controls), run 2, source C (virus producing H9 cells), virus kill 14.0%) amounted to 59.5%.

On to `CCCCCCCCC[C@@H]1O[C@@H]1C(=O)O` [Example 22, (2-S-cis)-3-Nonyloxiranecarboxylic Acid], for which the viability at 34.6 µg/mL reads like this: (168 h, read-out: Antiviral Effect (viable cells as % of uninfected controls), run 8, source V (cell free virus), virus kill 54.0%) 85.5%; (168 h, read-out: Antiviral Effect (viable cells as % of uninfected controls), run 10, source V (cell free virus), virus kill 26.0%) 40.3%; (H9, 168 h, read-out: Antiviral Effect (viable cells as % of uninfected controls), run 4, source C (virus producing H9 cells), virus kill 16.0%) 25.9%; (H9, 168 h, read-out: Antiviral Effect (viable cells as % of uninfected controls), run 6, source C (virus producing H9 cells), virus kill 14.0%) 12.8%. Moreover, the viability at 29 µg/mL reads like this: (168 h, read-out: Antiviral Effect (viable cells as % of uninfected controls), run 9, source V (cell free virus), virus kill 55.0%) 68.5%; (168 h, read-out: Antiviral Effect (viable cells as % of uninfected controls), run 11, source V (cell free virus), virus kill 33.0%) 41.9%; (H9, 168 h, read-out: Antiviral Effect (viable cells as % of uninfected controls), run 5, source C (virus producing H9 cells), virus kill 13.0%) 18.5%. The viability at 24.8 µg/mL (168 h, read-out: Antiviral Effect (viable cells as % of uninfected controls), run 12, source V (cell free virus), virus kill 30.0%) amounted to 23.1% and the viability at 24.8 µg/mL (168 h, read-out: Antiviral Effect (viable cells as % of uninfected controls), run 13*, source V (cell free virus), virus kill 20.0%, culture redosed with compound after 3 days) turned out to be 26.6%. Besides, the viability at 10 µg/mL under setting [1] worked out at 50.1%. For the same molecule, the viability at 0.1 µg/mL runs as follows: (H9, 168 h, read-out: Antiviral Effect (viable cells as % of uninfected controls), run 2, source C (virus producing H9 cells), virus kill 20.0%) 25.6%; (H9, 168 h, read-out: Antiviral Effect (viable cells as % of uninfected controls), run 3, source C (virus producing H9 cells), virus kill 8.0%) 9.5%. The viability at 2.9 µg/mL (H9, 168 h, read-out: Antiviral Effect (viable cells as % of uninfected controls), run 7, 2.9 ug/ml, source C (virus producing H9 cells), virus kill 16.0%) turned out to be 11.5%.

For `COC(=O)[C@@H]1O[C@@H]1COCc1ccccc1` [Example 25, Methyl (2R-cis)-3-(benzyloxymethyl)oxirane Carboxylate], the viability at 10 µg/mL reads like this: (168 h, read-out: Antiviral Effect (viable cells as % of uninfected controls), run 4, source V (cell free virus), virus kill 55.0%) 46.5%; (H9, 168 h, read-out: Antiviral Effect (viable cells as % of uninfected controls), run 3, source C (virus producing H9 cells), virus kill 11.0%) 12.3%. Besides, the viability at 1 µg/mL (168 h, read-out: Antiviral Effect (viable cells as % of uninfected controls), run 5, source V (cell free virus), virus kill 27.0%) came out at 49%. In addition, the viability at 4.7 µg/mL (168 h, read-out: Antiviral Effect (viable cells as % of uninfected controls), run 6, source V (cell free virus)) worked out at 25.6% and the viability at 4.7 µg/mL (168 h, read-out: Antiviral Effect (viable cells as % of uninfected controls), run 7*, source V (cell free virus), culture redosed with compound after 3 days) was 28.5%. For the same molecule, the viability at 100 µg/mL by setting is: (H9, 168 h, read-out: Antiviral Effect (viable cells as % of uninfected controls), run 1, source C (virus producing H9 cells), virus kill 20.0%) 28.6%; (H9, 168 h, read-out: Antiviral Effect (viable cells as % of uninfected controls), run 2, source C (virus producing H9 cells), virus kill 13.0%) 19.5%.
